From patent publication US12209102B2, “Heterocyclic compounds and uses thereof” (Kumquat Biosciences Inc., priority 2022, dated 2025) come the findings set out here.

For one assay, the system named is A549 cells. Description: Ras cellular assay, growth of cells with K-Ras G12S mutation (CellTiter-Glo). It is filed as cell-based. The conditions noted are these: Homo sapiens, cell growth, Example 9, G12S mutation, read-out: IC50 against A549 cells. The method in brief:
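A549 cells (K-Ras G12S) in RPMI-1640 with 10% heat-inactivated FBS, seeded e.g. 800 per well in standard or ultra-low-attachment 384-well plates, treated next day with a dilution series (e.g. 10-point, 3-fold). Viability by CellTiter-Glo luminescence about 6 days later; IC50 from four-parameter fit.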
Background: In ATP-based viability assays light output follows the ATP content of the culture.

Another assay concerns GP2D cells. Description: Ras cellular assay, growth of cells with K-Ras G12D mutation (CellTiter-Glo). As to conditions: cell growth, Example 9, G12D mutation, read-out: IC50 against GP2D cells. It is filed as cell-based.
The next assay addresses T1, K-Ras G12D (Homo sapiens, UniProt P01116, G12D).
T1 construct: made in house; host or cells: E. coli BL21 (DE3)
Kind of assay: HTRF resonance energy transfer assay, K-Ras G12D / SOS1 interaction. The assay is classed as biochemical. The conditions noted are these: HTRF assay of Example 5; read-out: IC50 against K-Ras G12D. In outline: (§1)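 Read-out: HTRF 665/620 nm ratio (excitation 337 nm) after roughly 10 min or longer incubation, used to derive IC50. Donor anti-GST-Eu on GST-K-Ras; acceptor anti-6His-XL665 on His-hSOS1. Duplicate dose series from 10 μM down to 0.01 μM.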
A general note: Time-resolved FRET reads energy transfer from a long-lived donor to a nearby acceptor.

The target in a further assay is T2, K-Ras G12S (Homo sapiens, UniProt P01116, G12S).
T2 construct: made in house; host or cells: E. coli BL21 (DE3)
T2 sequence (P01116 1-188 isoform P01116-2 G12S): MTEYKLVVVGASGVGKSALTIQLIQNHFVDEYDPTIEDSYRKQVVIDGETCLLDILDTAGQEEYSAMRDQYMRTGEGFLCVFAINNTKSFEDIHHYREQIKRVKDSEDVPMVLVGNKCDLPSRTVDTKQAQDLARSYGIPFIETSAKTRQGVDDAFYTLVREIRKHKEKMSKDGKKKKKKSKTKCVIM
Kind of assay: HTRF resonance energy transfer assay, K-Ras G12S / SOS1 interaction. The assay is classed as biochemical. The conditions noted are these: HTRF assay of Example 5; read-out: IC50 against K-Ras G12S. The method in brief:
as §1

Another assay deals with T3, K-Ras G12V (Homo sapiens, UniProt P01116, G12V).
T3 construct: made in house; host or cells: E. coli BL21 (DE3)
T3 sequence (P01116 1-188 isoform P01116-2 G12V): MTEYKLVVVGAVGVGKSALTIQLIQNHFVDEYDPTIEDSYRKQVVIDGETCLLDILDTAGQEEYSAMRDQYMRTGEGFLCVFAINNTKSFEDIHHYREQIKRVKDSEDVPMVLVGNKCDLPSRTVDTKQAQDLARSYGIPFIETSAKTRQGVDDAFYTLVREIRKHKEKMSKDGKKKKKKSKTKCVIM
Description: HTRF resonance energy transfer assay, K-Ras G12V / SOS1 interaction. The conditions noted are these: HTRF assay of Example 5; read-out: IC50 against K-Ras G12V. The assay is classed as biochemical. In outline: as §1

Another assay deals with T4, K-Ras WT (Homo sapiens, UniProt P01116).
T4 construct: made in house; host or cells: E. coli BL21 (DE3)
T4 sequence (P01116 1-188 isoform P01116-2): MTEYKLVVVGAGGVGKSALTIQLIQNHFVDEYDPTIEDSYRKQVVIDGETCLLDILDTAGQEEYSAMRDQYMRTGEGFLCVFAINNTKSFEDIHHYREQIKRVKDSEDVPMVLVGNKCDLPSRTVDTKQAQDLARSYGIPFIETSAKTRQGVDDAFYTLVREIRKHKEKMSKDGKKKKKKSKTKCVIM
Description: HTRF resonance energy transfer assay, K-Ras WT / SOS1 interaction. As to conditions: HTRF assay of Example 5; read-out: IC50 against K-Ras WT. It is filed as biochemical. The method in brief: as §1

A further assay deals with SW620 cells. Description: Ras cellular assay, growth of cells with K-Ras G12V mutation (CellTiter-Glo). It is filed as cell-based. The conditions noted are these: Homo sapiens, SW-620; cell growth, Example 9, G12V mutation; read-out: IC50 against SW620 cells. In outline:
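SW620 (K-Ras G12V) cells, e.g. 800/well in RPMI-1640 with 10% heat-inactivated FBS on standard or ultra-low attachment plates, were dosed the day after plating with e.g. a 10-point 3-fold series. Viability by CellTiter-Glo luminescence about 6 days later; IC50 from four-parameter fit.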

The term IC50 denotes the midpoint of a concentration-inhibition curve.

T1 sequence (P01116 1-188 isoform P01116-2 G12D): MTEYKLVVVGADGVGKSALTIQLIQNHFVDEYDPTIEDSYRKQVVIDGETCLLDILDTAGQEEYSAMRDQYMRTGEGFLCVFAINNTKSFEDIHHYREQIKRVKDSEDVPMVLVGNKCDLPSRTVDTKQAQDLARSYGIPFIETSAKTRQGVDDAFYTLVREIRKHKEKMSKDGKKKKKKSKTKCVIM

As to `CN(C)C(=O)C1CC(N2CCOc3c(Cl)c(-c4ccc(F)c5sc(N)c(C#N)c45)c(F)c4nc(OC[C@@]56CCCN5C[C@H](F)C6)nc2c34)C1` (single isomer, unassigned) [Compound 640], the 50% inhibitory concentration (IC50) in the assay with A549 cells was < 5000 nM; with GP2D cells, < 500 nM.
The matching figures for `CC1COc2c(Cl)c(-c3ccc(F)c4sc(N)c(C#N)c34)c(F)c3nc(OC[C@@]45CCCN4C[C@H](F)C5)nc(c23)N1CC(F)F` (single isomer, unassigned) [Compound 1073]: < 5000 nM and < 500 nM.
Regarding `CC[C@H]1COc2c(Cl)c(-c3ccc(F)c4sc(N)c(C#N)c34)c(F)c3nc(OC[C@@]45CCCN4C[C@H](F)C5)nc(c23)N1CC(F)F` [Compound 877, 2-amino-4-((5S)-8-chloro-4-(2,2-difluoroethyl)-5-ethyl-10-fluoro-2-(((2R,7aS)-2-fluorotetrahydro-1H-pyrrolizin-7a(5H)-yl)methoxy)-5,6-dihydro-4H-[1,4]oxazepino[5,6,7-de]quinazolin-9-yl)-7-fluorobenzo[b]thiophene-3-carbonitrile], the figures for the IC50 in the assay on A549 cells and in the assay on GP2D cells were < 5000 nM and < 500 nM, respectively.
The matching figures for `N#Cc1c(N)sc2c(F)ccc(-c3c(Cl)c4c5c(nc(OC[C@@]67CCCN6C[C@H](F)C7)nc5c3F)N(C3CCCC3O)CCO4)c12` (stereo partly drawn) [Compound 1017, 2-amino-4-(8-chloro-10-fluoro-2-(((2R,7aS)-2-fluorotetrahydro-1H-pyrrolizin-7a(5H)-yl)methoxy)-4-(2-hydroxycyclopentyl)-5,6-dihydro-4H-[1,4]oxazepino[5,6,7-de]quinazolin-9-yl)-7-fluorobenzo[b]thiophene-3-carbonitrile]: < 5000 nM and < 500 nM.
With `CC(C)(O)[C@H]1COc2c(Cl)c(-c3ccc(F)c4sc(N)c(C#N)c34)c(F)c3nc(OC[C@@]45CCCN4C[C@H](F)C5)nc(c23)N1C1CCOC1` (stereo partly drawn) [Compound 1041, 2-amino-4-((5R)-8-chloro-10-fluoro-2-(((2R,7aS)-2-fluorotetrahydro-1H-pyrrolizin-7a(5H)-yl)methoxy)-5-(2-hydroxypropan-2-yl)-4-(tetrahydrofuran-3-yl)-5,6-dihydro-4H-[1,4]oxazepino[5,6,7-de]quinazolin-9-yl)-7-fluorobenzo[b]thiophene-3-carbonitrile], the IC50 was < 100 nM on K-Ras G12D; < 100 nM at K-Ras G12S; < 100 nM at K-Ras G12V; < 100 nM on K-Ras WT; < 5000 nM with SW620 cells; < 500 nM in the assay with GP2D cells.
In the case of `C[C@H](O)[C@H]1[C@H](C)Oc2c(Cl)c(-c3ccc(F)c4sc(N)c(C#N)c34)c(F)c3nc(OC[C@@]45CCCN4C[C@H](F)C5)nc(c23)N1CC(F)F` [Compound 1042, 2-amino-4-((5S,6S)-8-chloro-4-(2,2-difluoroethyl)-10-fluoro-2-(((2R,7aS)-2-fluorotetrahydro-1H-pyrrolizin-7a(5H)-yl)methoxy)-5-((S)-1-hydroxyethyl)-6-methyl-5,6-dihydro-4H-[1,4]oxazepino[5,6,7-de]quinazolin-9-yl)-7-fluorobenzo[b]thiophene-3-carbonitrile], the half-inhibitory concentration (IC50) is < 100 nM at K-Ras G12D; < 100 nM on K-Ras G12S; < 100 nM on K-Ras G12V; < 100 nM at K-Ras WT; < 5000 nM in the assay on SW620 cells; < 500 nM with GP2D cells.
In the case of `CC(C)(O)C1COc2c(Cl)c(-c3ccc(F)c4sc(N)c(C#N)c34)c(F)c3nc(OC[C@@]45CCCN4C[C@H](F)C5)nc(c23)N1CCC(F)F` (stereo partly drawn) [Compound 1050, 2-amino-4-(8-chloro-4-(3,3-difluoropropyl)-10-fluoro-2-(((2R,7aS)-2-fluorotetrahydro-1H-pyrrolizin-7a(5H)-yl)methoxy)-5-(2-hydroxypropan-2-yl)-5,6-dihydro-4H-[1,4]oxazepino[5,6,7-de]quinazolin-9-yl)-7-fluorobenzo[b]thiophene-3-carbonitrile], the half-maximal inhibitory concentration (IC50) was < 100 nM at K-Ras G12D; < 100 nM at K-Ras G12S; < 100 nM at K-Ras G12V; < 100 nM at K-Ras WT; < 5000 nM in the assay with SW620 cells; < 500 nM in the assay on GP2D cells.
In the case of `N#Cc1c(N)sc2c(F)ccc(-c3c(Cl)c4c5c(nc(OC[C@@]67CCCN6C[C@H](F)C7)nc5c3F)N([C@H]3CNC[C@H]3F)CCO4)c12` [Compound 1070, 2-amino-4-(8-chloro-10-fluoro-4-((3S,4R)-4-fluoropyrrolidin-3-yl)-2-(((2R,7aS)-2-fluorotetrahydro-1H-pyrrolizin-7a(5H)-yl)methoxy)-5,6-dihydro-4H-[1,4]oxazepino[5,6,7-de]quinazolin-9-yl)-7-fluorobenzo[b]thiophene-3-carbonitrile], the 50% inhibitory concentration (IC50) is < 100 nM at K-Ras G12D; < 100 nM on K-Ras G12S; < 100 nM at K-Ras G12V; < 100 nM at K-Ras WT; < 5000 nM in the assay with SW620 cells; < 500 nM in the assay on GP2D cells.
On to `N#Cc1c(N)sc2c(F)ccc(-c3c(Cl)c4c5c(nc(OC[C@@]67CCCN6C[C@H](F)C7)nc5c3F)N[C@@H](C3(O)CC3)CO4)c12` [Compound 1076, 2-amino-4-((R)-8-chloro-10-fluoro-2-(((2R,7aS)-2-fluorotetrahydro-1H-pyrrolizin-7a(5H)-yl)methoxy)-5-(1-hydroxycyclopropyl)-5,6-dihydro-4H-[1,4]oxazepino[5,6,7-de]quinazolin-9-yl)-7-fluorobenzo[b]thiophene-3-carbonitrile], for which the IC50 was < 100 nM at K-Ras G12D; < 100 nM on K-Ras G12S; < 100 nM on K-Ras G12V; < 100 nM at K-Ras WT; < 5000 nM in the assay with SW620 cells; < 500 nM in the assay on GP2D cells.
On to `CN1c2nc(OC[C@@]34CCCN3C[C@H](F)C4)nc3c(F)c(-c4ccc(F)c5sc(N)c(C#N)c45)c(Cl)c(c23)OC[C@@H]1CNC=O` [Compound 1097, N-(((5S)-9-(2-amino-3-cyano-7-fluorobenzo[b]thiophen-4-yl)-8-chloro-10-fluoro-2-(((2R,7aS)-2-fluorotetrahydro-1H-pyrrolizin-7a(5H)-yl)methoxy)-4-methyl-5,6-dihydro-4H-[1,4]oxazepino[5,6,7-de]quinazolin-5-yl)methyl)formamide], for which the half-maximal inhibitory concentration (IC50) at K-Ras G12D is < 100 nM; on K-Ras G12S, < 100 nM; on K-Ras G12V it was < 100 nM; on K-Ras WT, < 100 nM; with SW620 cells, < 5000 nM; in the assay on GP2D cells, < 500 nM.
Consider `CC(O)C1COc2c(Cl)c(-c3ccc(F)c4sc(N)c(C#N)c34)c(F)c3nc(OC[C@@]45CCCN4C[C@H](F)C5)nc(c23)N1CC1CCNCC1` (stereo partly drawn) [Compound 1125, 2-amino-4-(8-chloro-10-fluoro-2-(((2R,7aS)-2-fluorotetrahydro-1H-pyrrolizin-7a(5H)-yl)methoxy)-5-(1-hydroxyethyl)-4-(piperidin-4-ylmethyl)-5,6-dihydro-4H-[1,4]oxazepino[5,6,7-de]quinazolin-9-yl)-7-fluorobenzo[b]thiophene-3-carbonitrile], for which the IC50 on K-Ras G12D was < 100 nM; on K-Ras G12S, < 100 nM; on K-Ras G12V, < 100 nM; on K-Ras WT, < 100 nM; with SW620 cells it was < 5000 nM; in the assay with GP2D cells, < 500 nM.
In the case of `C[C@@H]1CCOc2c(Cl)c(-c3ccc(F)c4sc(N)c(C#N)c34)c(F)c3nc(OC[C@@]45CCCN4C[C@H](F)C5)nc(c23)N1` [Compound 1219, 2-amino-4-((5R)-9-chloro-11-fluoro-2-(((2R,7aS)-2-fluorotetrahydro-1H-pyrrolizin-7a(5H)-yl)methoxy)-5-methyl-4,5,6,7-tetrahydro-[1,5]oxazocino[4,3,2-de]quinazolin-10-yl)-7-fluorobenzo[b]thiophene-3-carbonitrile], the IC50 at K-Ras G12D was < 100 nM; on K-Ras G12S, < 100 nM; at K-Ras G12V, < 100 nM; at K-Ras WT, < 100 nM; in the assay on SW620 cells, < 5000 nM; in the assay on GP2D cells it was < 500 nM.
Turning to `C[C@@H]1CCOc2c(Cl)c(-c3ccc(F)c4sc(N)c(C#N)c34)c(F)c3nc(OC[C@@]45CCCN4C[C@H](F)C5)nc(c23)N1C` [Compound 1222, 2-amino-4-((R)-9-chloro-11-fluoro-2-(((2R,7aS)-2-fluorotetrahydro-1H-pyrrolizin-7a(5H)-yl)methoxy)-4,5-dimethyl-4,5,6,7-tetrahydro-[1,5]oxazocino[4,3,2-de]quinazolin-10-yl)-7-fluorobenzo[b]thiophene-3-carbonitrile], the half-maximal inhibitory concentration (IC50) was < 100 nM at K-Ras G12D; < 100 nM on K-Ras G12S; < 100 nM at K-Ras G12V; < 100 nM on K-Ras WT; < 5000 nM in the assay on SW620 cells; < 500 nM with GP2D cells.
